The values that follow come from US9314539B2, “Nanosphere-histone acetyltransferase (HAT) activator composition, process and methods thereof” (JAWAHARLAL NEHRU CENTRE FOR ADVANCED SCIENTIFIC RESEARCH, priority 2012, dated 2016).

Each structure is given as a SMILES string. Read-outs that look alike come from different tables or passages of the source.

Series [1] concerns the target T1, p300 (Homo sapiens, UniProt Q09472). Kind of series: HAT filter binding assay with p300. Type of series: biochemical. Conditions: for HAT activation (radioactivity counts): 200 μM, HeLa core histones as substrate. An excerpt:
To understand the mechanistic aspects HAT activation various small molecules are derivatized from CTPB. The initial tail less derivative of CTPB is nomenclatured as N-(4Chloro-3-trifluoromethy 1-pheny 1)-2-ethoxybenzamide [CTB]. CTB is further derivatized to TTK series of compounds (COMPOUNDS 1-9) (FIG. 29 A). These compounds are subjected to histone acetyltransferase assays (filter binding assay) to check for their ability to activate p300/CBP HAT. Core histones purified from HeLa nuclear pellet is used as the substrate and p300 purified from baculovirus infected Sf21 cells is used to determine the HAT modulation activity of these compounds. All compounds are used at a concentration of 200 μM in the HAT assays.
(§1) Highly purified HeLa core histones are incubated in HAT assay buffer at about 30° C. for a time-period of about 10 minutes with or without baculo virus expressed recombinant p300 or CBP in the presence or absence of small molecules (i.e. HAT activators). The incubation is followed by the addition of about 1 μl of 3.6 Ci/mmol ^3H-acetyl CoA (NEN-PerkinElmer) and further incubation for about 10 minutes in a final volume of 30 μl at 30° C. The mixture is blotted onto P-81 (Whatman) filter paper and radioactive counts are recorded on a Wallac 1409 liquid scintillator counter. For gel fluorographic assays, histones are isolated by trichloroacetic acid (TCA) precipitation using 25% TCA. The pellet obtained is washed twice with acetone and dissolved in 2×SDS loading dye, heated for about 5 mins and is followed by separation using 15% SDS-PAGE. Comassie staining is performed to ascertain the presence of equal loading in each reaction and is later dehydrated in DMSO for about 1 hour. Dehydrated gel is later incubated in scintillation fluid (PPO solution in DMSO) for about 45 minutes and rehydrated again in distilled water for about 4 hours. The gel is then dried using a gel drier and later exposed in an X-ray cassette using a film for about 5 days in −80° cooler. The film is then developed to obtain the intensity profiles for each of the reactions.

Series [2] has as its target T1, p300. Briefly: Gel fluorography HAT assay with p300. Type of series: biochemical. The protocol: FIG. 2 depicts (A) filter binding assay to show activation of p300 by TTK21. […] TTK21 dissolved in DMSO is added to the reaction mixture at desired concentrations. Lane 1—Histone only, Lane 2—p300 enzyme added, Lane 3—DMSO added, Lane 4—50 μM TTK21, Lane 5—100 μM TTK21, Lane 6—200 μM TTK21 and Lane 7—275 μM TTK21.
as §1, with “Dehydrated gel is later incubated in scintillation fluid (PPO solution in DMSO) for about 45 minutes and rehydrated again in distilled water for about 4 hours. The gel is then dried using a gel drier and later exposed in an X-ray cassette using a film for about 5 days in −80° cooler. The film is then developed to obtain the intensity profiles for each of the reactions.” left out

Series [3] relates to CBP. Kind of series: HAT filter binding and gel fluorography assays with full length FLAG-CBP. Type of series: biochemical. As to the method:
TTK21 dissolved in DMSO is added to the reaction mixture at desired concentrations. Lane 1—Histone only, Lane 2—CBP enzyme added, Lane 3—DMSO added, Lane 4—50 μM TTK21, Lane 5—100 μM TTK21, Lane 6—200 μM TTK21 and Lane 7—275 μM TTK21.
COMPOUND 1 is synthesized using salicylic acid as a substrate as depicted in FIG. 1. […] The concentrations of COMPOUND 1 selected for this particular assay are 50 μM, 100 μM, 200 μM and 275 μM. […] These screening experiments are also repeated with full length FLAG-CBP (FIG. 3).
Highly purified HeLa core histones are incubated in HAT assay buffer at about 30° C. for a time-period of about 10 minutes with or without baculo virus expressed recombinant p300 or CBP in the presence or absence of small molecules (i.e. HAT activators). The incubation is followed by the addition of about 1 μl of 3.6 Ci/mmol ^3H-acetyl CoA (NEN-PerkinElmer) and further incubation for about 10 minutes in a final volume of 30 μl at 30° C. The mixture is blotted onto P-81 (Whatman) filter paper and radioactive counts are recorded on a Wallac 1409 liquid scintillator counter. For gel fluorographic assays, histones are isolated by trichloroacetic acid (TCA) precipitation using 25% TCA. The pellet obtained is washed twice with acetone and dissolved in 2×SDS loading dye, heated for about 5 mins and is followed by separation using 15% SDS-PAGE. […]

The test system of series [4] is HeLa cells. Kind of series: Cell permeability: western blot of acetylated H3 in treated HeLa cells. Type of series: cell-based. The protocol:
(A) western blot analysis of TTK21 untreated and treated HeLa cells for 24 hours. […] Primary probing of the blot is done with AcH3 and re-probing is done by H3 antibody.
(In general: Immunoblotting shows a protein as a band on a membrane.)

Series [5] has as its system SHSY cells. Briefly: Cell permeability in neural cell lines. Type of series: cell-based. As to the method:
The cell permeability tests of COMPOUND 1 alone is also carried out in various neural cell lines such as SHSY cells and the results are found to be similar to HeLa cells.

Series [6] concerns neurons expressing double cortin. Briefly: Neurogenesis in dentate gyrus of hippocampus, doublecortin staining. Type of series: in vivo, mice. To be noted: intraperitoneal; 3 days. The protocol:
FIG. 18 depicts CSP-TTK21 induced neurogenesis in the inner wall of dentate gyms of mice hippocampus. […] of either CSP alone or TTK21 alone or CSP-TTK21 is injected intraperitonially into mice and after 3 days the mice are anesthetized and fixed with 4% paraformaldehyde. Brains are dissected out and post-fixed, cryoprotected and frozen. 20 μm thick sections are obtained and the results are analyzed by immunohistochemistry. Further, immunofluorescence assays are performed using antibody against double cortin. Scale bar represents 50 μm.
A-D, Immunohistochemistry analysis of the dentate gyms of mice, 3 days after intraperitonial injection of either CSP alone or CSP-TTK21 (20 mg/kg of body weight) using an antibody against doublecortin (DCX) followed by DAB staining. A typical photograph is shown (A). Scale bars: 100 μm. The timeline for injection and euthanasia is shown. h, hour; d, day. […] (C) The average of the longest dendrites associated to all DCX positive-new neuron within one hippocampus is calculated and is represented as histogram for each condition (CSP: 141.1 μm vs. CSP-TTK21: 176.9 μm, *p=0.0177, 4-6 sections/animal). (D), (A) typical cropped image from A is shown, on which the number of dendrites crossing virtual lines drawned at 60, 90 and 120 μm from the SGZ was counted (n=5 images/animal). […]

T1 sequence (Q09472 whole entry, species assumed): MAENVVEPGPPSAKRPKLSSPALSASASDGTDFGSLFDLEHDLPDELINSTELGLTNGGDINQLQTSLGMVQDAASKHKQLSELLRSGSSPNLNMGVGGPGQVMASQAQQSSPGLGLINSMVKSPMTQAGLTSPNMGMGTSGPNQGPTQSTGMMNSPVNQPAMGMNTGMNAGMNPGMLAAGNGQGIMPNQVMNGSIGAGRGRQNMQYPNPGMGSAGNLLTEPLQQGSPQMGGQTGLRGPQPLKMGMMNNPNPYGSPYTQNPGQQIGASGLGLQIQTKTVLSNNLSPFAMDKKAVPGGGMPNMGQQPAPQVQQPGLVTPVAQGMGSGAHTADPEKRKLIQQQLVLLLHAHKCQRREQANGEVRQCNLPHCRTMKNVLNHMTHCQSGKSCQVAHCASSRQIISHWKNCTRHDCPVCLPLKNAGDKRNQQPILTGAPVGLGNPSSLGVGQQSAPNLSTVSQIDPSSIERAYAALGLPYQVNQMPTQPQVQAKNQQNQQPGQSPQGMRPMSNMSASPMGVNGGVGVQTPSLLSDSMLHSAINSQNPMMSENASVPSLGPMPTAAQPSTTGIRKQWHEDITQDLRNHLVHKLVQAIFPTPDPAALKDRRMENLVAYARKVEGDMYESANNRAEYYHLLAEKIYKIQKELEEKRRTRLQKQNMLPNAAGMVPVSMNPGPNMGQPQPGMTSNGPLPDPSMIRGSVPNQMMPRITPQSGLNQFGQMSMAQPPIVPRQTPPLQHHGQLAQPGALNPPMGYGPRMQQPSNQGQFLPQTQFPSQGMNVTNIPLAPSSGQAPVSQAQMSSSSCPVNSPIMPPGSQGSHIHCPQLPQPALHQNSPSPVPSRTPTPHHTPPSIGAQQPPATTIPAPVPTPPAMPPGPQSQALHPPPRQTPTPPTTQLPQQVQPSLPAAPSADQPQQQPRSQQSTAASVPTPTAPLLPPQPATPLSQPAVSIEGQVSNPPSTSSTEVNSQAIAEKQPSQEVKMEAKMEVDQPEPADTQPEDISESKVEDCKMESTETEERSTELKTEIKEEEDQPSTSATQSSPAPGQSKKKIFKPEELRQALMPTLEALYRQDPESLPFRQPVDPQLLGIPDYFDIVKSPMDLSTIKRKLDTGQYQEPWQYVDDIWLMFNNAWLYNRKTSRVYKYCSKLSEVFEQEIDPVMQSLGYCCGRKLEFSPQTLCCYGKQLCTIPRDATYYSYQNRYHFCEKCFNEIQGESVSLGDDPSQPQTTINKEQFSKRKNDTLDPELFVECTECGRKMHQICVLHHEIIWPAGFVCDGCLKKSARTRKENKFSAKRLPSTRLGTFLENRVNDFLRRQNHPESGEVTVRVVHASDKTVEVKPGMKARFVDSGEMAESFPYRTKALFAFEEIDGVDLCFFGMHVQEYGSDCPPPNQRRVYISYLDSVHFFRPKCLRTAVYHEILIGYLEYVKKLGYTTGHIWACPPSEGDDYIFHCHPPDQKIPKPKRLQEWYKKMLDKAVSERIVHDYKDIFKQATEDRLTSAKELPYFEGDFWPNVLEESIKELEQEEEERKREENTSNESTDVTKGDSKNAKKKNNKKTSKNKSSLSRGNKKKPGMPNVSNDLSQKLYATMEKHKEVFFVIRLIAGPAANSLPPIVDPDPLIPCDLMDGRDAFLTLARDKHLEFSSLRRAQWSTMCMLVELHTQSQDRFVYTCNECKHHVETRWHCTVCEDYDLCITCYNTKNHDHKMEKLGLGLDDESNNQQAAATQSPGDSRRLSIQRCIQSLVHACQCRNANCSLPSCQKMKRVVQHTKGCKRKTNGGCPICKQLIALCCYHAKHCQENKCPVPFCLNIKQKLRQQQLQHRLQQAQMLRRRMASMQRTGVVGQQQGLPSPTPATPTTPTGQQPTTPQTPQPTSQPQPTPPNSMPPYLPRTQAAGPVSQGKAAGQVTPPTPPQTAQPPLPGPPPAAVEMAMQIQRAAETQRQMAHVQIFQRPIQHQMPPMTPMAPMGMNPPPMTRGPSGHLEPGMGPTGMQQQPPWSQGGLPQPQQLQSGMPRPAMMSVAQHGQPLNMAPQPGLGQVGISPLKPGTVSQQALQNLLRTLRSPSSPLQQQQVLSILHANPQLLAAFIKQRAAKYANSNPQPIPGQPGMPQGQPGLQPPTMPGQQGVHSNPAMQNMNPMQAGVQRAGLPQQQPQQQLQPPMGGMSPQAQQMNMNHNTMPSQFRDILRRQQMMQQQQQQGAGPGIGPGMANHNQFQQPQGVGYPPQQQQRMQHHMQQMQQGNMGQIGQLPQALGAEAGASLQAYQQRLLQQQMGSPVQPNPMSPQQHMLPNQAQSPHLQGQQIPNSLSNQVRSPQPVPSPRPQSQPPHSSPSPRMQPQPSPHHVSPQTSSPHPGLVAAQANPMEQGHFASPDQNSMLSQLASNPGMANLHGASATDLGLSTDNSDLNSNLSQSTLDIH

For the compound `CCCOc1ccccc1C(=O)Nc1ccc(Cl)c(C(F)(F)F)c1` [COMPOUND 1, N-(4-Chloro-3-trifluoromethyl-phenyl)-2-n-propoxy-benzamide], the “HAT activation (radioactivity counts)” value in series [1] is “one of the most efficient HAT activator”; in series [1] (listed as TTK21), “significant increase in radioactivity counts compared to other compounds”. Further, the “concentration of maximum activation of p300” value in series [1] (filter binding) is 250 to 275 µM; in series [2], 275 µM. Moreover, the “activation of p300, dose dependence” value in series [1] (filter binding, 50-275 μM) is given as “Dose dependent activation of p300”; in series [2] (50-275 μM), “dose dependent manner”. Further, the “concentration from which activation of p300 starts” value in series [1] (filter binding, tested 50, 100, 200, 275 μM) came out at 5004. Besides, the “activation of CBP, dose dependence” value in series [3] (50-275 μM) was “dose dependent activation of CBP”. For the same compound, the “concentration of maximum activation of CBP” value in series [3] (filter binding and gel fluorography) turned out to be 275 µM. The cell permeability entry is on record as “inability of the COMPOUND 1 molecule itself to enter into mammalian cells” in series [4], “impermeable to cells” in series [4] (listed as TTK21) and “inability of the COMPOUND 1 molecule alone to enter into mammalian cells” in series [5]. Besides, the “histone H3 acetylation” value in series [4] (50-275 μM, 24 hrs) is reported as “no alteration of histone H3 acetylation”. Moreover, in series [6], the “double cortin expression in dentate gyrus” value is reported as “doesn't show double cortin expression”.
